From patent US20260265246A1 (ICAHN SCHOOL OF MEDICINE AT MOUNT SINAI, priority 2021, published 2026)
Read-outs that look alike come from different tables or passages of the source.

Experiments:
5HT2A receptor [1] = target: T1, 5HT2A receptor (Homo sapiens, UniProt P28223); experiment: biochemical; assay type: binding; design: expressed in transfected cells; crude membranes
5HT2A receptor [2] = target: T1, 5HT2A receptor; experiment: cell-based; design: expressed in transfected cells; host or cells: HEK293T cells, transient co-transfection; details: for Emax: HEK-293T
5HT2A receptor [3] = target: T1, 5HT2A receptor; experiment: cell-based; design: expressed in transfected cells; host or cells: HEK293T cells, transient co-transfection; details: for Emax: HEK-293T; remark: listed apart in the source
[4] = 5HT2A Ki (nM), secondary radioligand binding, Ki from IC50 by Cheng-Prusoff
[5] = 5HT2A Gq EC50 (nM), BRET2 Gαq dissociation, HEK293T cells
[6] = BRET2 Gαq dissociation, HEK293T cells, normalized to 5-HT, read-out: 5HT2A Gq Emax (%)
[7] = 5HT2A β-Arr EC50 (nM), BRET1 beta-arrestin2 recruitment, HEK293T cells
[8] = BRET1 beta-arrestin2 recruitment, HEK293T cells, normalized to 5-HT, read-out: 5HT2A β-Arr Emax (%)
[9] = 5HT2A Ki (nM), secondary binding assay, Cheng-Prusoff
[10] = 5HTA Gq EC50 (nM), BRET2 Gαq dissociation, HEK293T
[11] = BRET2 Gαq dissociation, HEK293T, normalized to 5-HT, read-out: 5HTA Gq Emax (%)
[12] = 5HT2A β-Arr EC50 (nM), BRET1 beta-arrestin2 recruitment, HEK293T
[13] = BRET1 beta-arrestin2 recruitment, HEK293T, normalized to 5-HT, read-out: 5HT2A β-Arr Emax (%)
[14] = secondary radioligand binding, Ki from IC50 by Cheng-Prusoff, read-out: 5HT2A Ki
[15] = BRET2 Gαq dissociation, HEK293T cells, read-out: 5HT2A Gq EC50
[16] = BRET1 beta-arrestin2 recruitment, HEK293T cells, read-out: 5HT2A β-Arr EC50
[17] = read-out: 5HTA Gq Emax (%), BRET2 Gαq dissociation, HEK293T, normalized to 5-HT
[18] = read-out: 5HT2A β-Arr Emax (%), BRET1 beta-arrestin2 recruitment, HEK293T, normalized to 5-HT
[19] = BRET2 Gαq dissociation, HEK293T, read-out: 5HTA Gq EC50

T1 sequence (P28223 whole entry): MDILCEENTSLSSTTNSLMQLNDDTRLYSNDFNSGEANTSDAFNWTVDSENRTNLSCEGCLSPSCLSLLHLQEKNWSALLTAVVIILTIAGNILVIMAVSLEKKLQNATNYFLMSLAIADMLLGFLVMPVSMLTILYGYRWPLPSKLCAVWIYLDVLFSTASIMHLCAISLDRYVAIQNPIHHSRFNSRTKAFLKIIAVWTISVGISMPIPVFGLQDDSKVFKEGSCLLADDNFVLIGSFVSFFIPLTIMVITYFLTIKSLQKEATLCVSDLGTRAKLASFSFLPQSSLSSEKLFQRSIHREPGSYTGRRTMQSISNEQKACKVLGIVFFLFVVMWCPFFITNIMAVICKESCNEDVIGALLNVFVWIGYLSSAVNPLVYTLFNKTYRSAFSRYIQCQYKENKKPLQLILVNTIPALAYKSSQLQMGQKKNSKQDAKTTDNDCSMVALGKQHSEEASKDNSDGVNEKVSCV

Structure (SMILES) | Ki (5HT2A receptor [1]; [4]) [nM] | EC50 (5HT2A receptor [2]; [5]) [nM] | Emax (5HT2A receptor [2]; [6]) [%] | EC50 (5HT2A receptor [3]; [7]) [nM] | Emax (5HT2A receptor [3]; [8]) [%] | Ki (5HT2A receptor [1]; [9]) [nM] | EC50 (5HT2A receptor [2]; [10]) [nM] | Emax (5HT2A receptor [2]; [11]) [%] | EC50 (5HT2A receptor [3]; [12]) [nM] | Emax (5HT2A receptor [3]; [13]) [%] | other results
CN1CCC=C(c2c[nH]c3nccc(Cl)c23)C1 [Example 15, 4-chloro-3-(1-methyl-1,2,5,6-tetrahydropyridin-3-yl)-1H-pyrrolo[2,3-b]pyridine] | 465 | 23.5 | 68.8 | 683 | 31.5 |  |  |  |  |  | 
Fc1cccc2c(C34CNCC3C4)n[nH]c12 (stereo not shown) [Example 187, 3-(3-azabicyclo[3.1.0]hexan-1-yl)-7-fluoro-1H-indazole] |  |  |  |  |  | 699 | 136 | 71.6 | 648 | 35 | 
Clc1ccc2[nH]nc(C3=CCCNC3)c2c1 [Example 84, 5-chloro-3-(1,2,5,6-tetrahydropyridin-3-yl)-1H-indazole] |  |  | 94.8 |  | 97 |  |  |  |  |  | Ki (5HT2A receptor [1]; [14]): 25.3 nM; EC50 (5HT2A receptor [2]; [15]): 3.4 nM; EC50 (5HT2A receptor [3]; [16]): 52.4 nM
Fc1ccnc2[nH]cc(C3=CCCNC3)c12 [Example 119, 4-fluoro-3-(1,2,5,6-tetrahydropyridin-3-yl)-1H-pyrrolo[2,3-b]pyridine] | 844 | 193 | 88.2 | 1520 | 53.8 |  |  |  |  |  | 
CN1CCC=C(c2c[nH]c3nc(F)ccc23)C1 [Example 134, 6-fluoro-3-(1-methyl-1,2,5,6-tetrahydropyridin-3-yl)-1H-pyrrolo[2,3-b]pyridine] |  |  |  |  |  | 284 | 140 | 87.4 | 1050 | 51.1 | 
Clc1[nH]c2ccccc2c1C1=CCCNC1 [Example 64, 2-chloro-3-(1,2,5,6-tetrahydropyridin-3-yl)-1H-indole] | 186 | 61.9 | 91.8 | 219 | 60.2 |  |  |  |  |  | 
Clc1cccc2c(C3=CC4CCC(C3)N4)n[nH]c12 (stereo not shown) [Example 221, 3-(8-azabicyclo[3.2.1]oct-2-en-3-yl)-7-chloro-1H-indazole] |  |  |  |  |  | 1400 | 108 | 59.3 | 1320 | 66.9 | 
Fc1ccc2c(C3=CCCNC3)c[nH]c2n1 [Example 133, 6-fluoro-3-(1,2,5,6-tetrahydropyridin-3-yl)-1H-pyrrolo[2,3-b]pyridine] |  |  |  |  |  | 292 | 166 |  | 897 |  | Emax (5HT2A receptor [2]; [17]): 77.2%; Emax (5HT2A receptor [3]; [18]): 38.1%
Clc1cccc2c(C3=CCCN(C4CC4)C3)n[nH]c12 [Example 166, 7-chloro-3-(1-cyclopropyl-1,2,5,6-tetrahydropyridin-3-yl)-1H-indazole] |  |  |  |  |  | 307 | 47.1 |  | 120 |  | Emax (5HT2A receptor [2]; [17]): 64%; Emax (5HT2A receptor [3]; [18]): 24.9%
Clc1ccnc2[nH]cc(C3=CCCNC3)c12 [Example 11, 4-chloro-3-(1,2,5,6-tetrahydropyridin-3-yl)-1H-pyrrolo[2,3-b]pyridine] | 273 | 79.9 | 84.7 | 904 | 43.7 |  |  |  |  |  | 
FC1(F)C2CNCC21c1n[nH]c2c(Cl)cccc12 (stereo not shown) [Example 199, 7-chloro-3-(6,6-difluoro-3-azabicyclo[3.1.0]hexan-1-yl)-1H-indazole] |  |  |  |  |  | 3440 | 174 | 87.1 | 956 | 76.5 | 
N#Cc1cccc2c(C34CNCC3C4)n[nH]c12 (stereo not shown) [Example 184, 3-(3-azabicyclo[3.1.0]hexan-1-yl)-1H-indazole-7-carbonitrile] |  |  |  |  |  | 5680 | 423 | 103 | 1970 | 68.2 | 
CN1CCC=C(c2n[nH]c3c(C#N)cccc23)C1 [Example 108, 3-(1-methyl-1,2,5,6-tetrahydropyridin-3-yl)-1H-indazole-7-carbonitrile] | 1380 | 108 | 102 | 494 | 72.5 |  |  |  |  |  | 
CN1CCC=C(c2c[nH]c3cccc(-c4ccccc4)c23)C1 [Example 21, 3-(1-methyl-1,2,5,6-tetrahydropyridin-3-yl)-4-phenyl-1H-indole] | 14 | 874 | 59.6 | 358 | 15.1 |  |  |  |  |  | 
Fc1ccc2c(C3=CCCNC3)n[nH]c2c1 [Example 78, 6-fluoro-3-(1,2,5,6-tetrahydropyridin-3-yl)-1H-indazole] |  |  | 79.4 |  | 59.4 |  |  |  |  |  | Ki (5HT2A receptor [1]; [14]): 57.6 nM; EC50 (5HT2A receptor [2]; [15]): 11.5 nM; EC50 (5HT2A receptor [3]; [16]): 115 nM
COc1cnc2[nH]cc(C3=CCCNC3)c2c1 [Example 2, 5-methoxy-3-(1,2,5,6-tetrahydropyridin-3-yl)-1H-pyrrolo[2,3-b]pyridine] | 294 | 135 | 73.7 | 1040 | 61.6 |  |  |  |  |  | 
CN1CCCC(c2c[nH]c3c(Cl)cccc23)C1 (single isomer, unassigned) [Example 113, 7-chloro-3-(1-methylpiperidin-3-yl)-1H-indole] | 1430 | 279 |  | 1520 |  |  |  |  |  |  | Emax (5HT2A receptor [2]; read-out: 5HT2A Gq Emax (%), BRET2 Gαq dissociation, HEK293T cells, normalized to 5-HT): 84.9%; Emax (5HT2A receptor [3]; read-out: 5HT2A β-Arr Emax (%), BRET1 beta-arrestin2 recruitment, HEK293T cells, normalized to 5-HT): 62.6%
FCCCN1CCC=C(c2n[nH]c3c(Cl)cccc23)C1 [Example 165, 7-chloro-3-(1-(3-fluoropropyl)-1,2,5,6-tetrahydropyridin-3-yl)-1H-indazole] |  |  |  |  |  | 342 |  | 65 | 157 | 28.7 | EC50 (5HT2A receptor [2]; [19]): 85.8 nM
Clc1cccc2c(C34CNCCC3C4)c[nH]c12 (stereo not shown) [Example 269, 3-(3-azabicyclo[4.1.0]heptan-1-yl)-7-chloro-1H-indole] |  |  |  |  |  | 743 | 257 |  | 1380 |  | Emax (5HT2A receptor [2]; [17]): 88.8%; Emax (5HT2A receptor [3]; [18]): 30%
CN1CC(c2c[nH]c3c(Cl)cccc23)C1 [Example 256, 7-chloro-3-(1-methylazetidin-3-yl)-1H-indole] |  |  |  |  |  | 2010 | 367 | 97.5 | 1000 | 31.7 | 
CN1CCC=C(c2n[nH]c3c(Cl)cc(F)cc23)C1 [Example 130, 7-chloro-5-fluoro-3-(1-methyl-1,2,5,6-tetrahydropyridin-3-yl)-1H-indazole] |  |  |  |  |  |  |  | 91.4 |  | 88.5 | Ki (5HT2A receptor [1]; secondary binding assay, Cheng-Prusoff, read-out: 5HT2A Ki): 19.5 nM; EC50 (5HT2A receptor [2]; [19]): 12.9 nM; EC50 (5HT2A receptor [3]; BRET1 beta-arrestin2 recruitment, HEK293T, read-out: 5HT2A β-Arr EC50): 165 nM
Cc1cccc2[nH]nc(C3=CCCN(C)C3)c12 [Example 97, 4-methyl-3-(1-methyl-1,2,5,6-tetrahydropyridin-3-yl)-1H-indazole] | 786 |  | 69 | 605 | 64.6 |  |  |  |  |  | EC50 (5HT2A receptor [2]; [15]): 80.4 nM
CN1CCC=C(c2n[nH]c3cc(F)ccc23)C1 [Example 95, 6-fluoro-3-(1-methyl-1,2,5,6-tetrahydropyridin-3-yl)-1H-indazole] |  |  | 47.1 |  | 27 |  |  |  |  |  | Ki (5HT2A receptor [1]; [14]): 47.3 nM; EC50 (5HT2A receptor [2]; [15]): 21.1 nM; EC50 (5HT2A receptor [3]; [16]): 467 nM
